Measurements taken from patent US20250257325A1, “SYSTEM AND COMPOSITION OF R[…] FOR P[…] VIRUSES AND METHODS THEREOF” (The University of Hong Kong, priority 2024, published 2025).
“Also recorded” adds a separate entry of the source.

Key:
[1] = tested on: HRV-C3; test: HRV-C3 replication and serial passage in airway organoids with CYT387 or DMSO (viral load by RT-qPCR); assay type: cell-based, human rhinovirus C; conditions: human airway organoids; for serial HRV-C propagation (P1-P5) and viral load versus DMSO-treated organoids: 1 μg/ml CYT387, media harvested at 96 h.p.i.
Description: We examined HRV-C replication in airway organoids in the presence or absence of CYT387 (FIG. 2A). Briefly, we inoculated an HRV-C3+ medium (medium collected from organoids infected by an HRV-C3+ clinical specimen) onto the airway organoids pre-treated with 1 μg/ml CYT387 or DMSO. The infected organoids were further incubated with CYT387 (CYT thereafter) or DMSO for 96 hours, after which we harvested the culture medium (P1) to examine viral growth. P1 media from CYT- and mock-treated organoids were brought forward to P2 passage in the presence of CYT and DMSO, respectively (FIG. 2A). […] In the following P3 passage, we had to inoculate CYT-treated P2 media onto airway organoids, in which we continued CYT or DMSO treatment to verify the enhancement effect of CYT. This CYT-treated media inoculation, followed by CYT or DMSO treatment, was repeated in the subsequent P4 and P5 passage.
A total of 9 HRV-C positive archived nasopharyngeal specimens from clinical patients were used for the study. Mature human airway and nasal organoids growing on 24-transwell inserts were washed twice with the basal medium (Advanced DMEM/F-12 (Gibco) supplemented with 1% HEPES, 1% GlutaMAX, and 1% Penicillin/Streptomycin), followed by virus inoculation with the indicated viral gene copy and subsequent incubation in the PD medium (PneumaCult-ALI medium (STEMCELL Technologies) supplemented with 10 μM DAPT and 10 μM Y27632), at 37° C. for 4 h. After incubation, the airway or nasal organoids were washed 3 times with the basal medium to remove residual inoculum. The apical and basolateral chambers were replenished with 300 μl and 500 μl PD medium, respectively. As for CYT387 treatment, airway and nasal organoids were pre-incubated in the PD medium with 1 μg/ml CYT387 (Invivogen, inh-cy87) or DMSO overnight. After virus inoculation, PD medium supplemented with 1 μg/ml CYT387 or DMSO was dispersed into apical and basolateral chambers to maintain the organoids. To assess the effect of temperature on viral growth, we infected nasal organoids with HRV-C3 and HRV-A1 at 100 viral gene copy/cell and maintained the organoids at 33° C. or 37° C. […] Culture media were harvested from the infected organoids at the indicated h.p.i. to detect viral replication. To investigate the antiviral effect of inhibitors on HRV-C replication, organoids were inoculated with HRV-A1 or HRV-C3 at 1000 viral gene copy/cell and incubated with the PD medium in the presence of 1 μM Rupintrivir, 3 μM Itraconazole, or DMSO. The culture media were collected at the indicated h.p.i. for viral load detection. […]

[2] = tested on: HRV-C3; test: HRV-C3 serial passage in nasal organoids with CYT387 or DMSO (viral load by RT-qPCR); assay type: cell-based, human rhinovirus C; conditions: human nasal organoids, CYT387 vs DMSO, 100 viral gene copy/cell, 96 h.p.i.
Description: We inoculated nasal organoids with the HRV-C3+ medium collected from organoids infected with an HRV-C3+ clinical specimen in the presence of CYT or DMSO and collected culture media at 96 h.p.i. Due to the high viral load in DMSO-treated nasal organoids in a preliminary experiment, we changed the experimental design. Briefly, the virus-containing media from CYT- and DMSO-treated organoids were brought forward to the next round of infection with the CYT and DMSO treatment, respectively (FIG. 3A). […] Nonetheless, in the absence of CYT, nasal organoids derived from two different donors sustained four consecutive passages of HRV-C3 (FIG. 3B). We also tested HRV-C11+ (FIG. 3C) and HRV-C15+ (FIG. 3D) medium (the medium collected from organoids infected with an HRV-C11+ and HRV-C15+ clinical specimen respectively) in nasal organoids derived from another donor. The two subtypes of HRV-C were serially passaged three times with high viral loads, and more passages could be furthered, if necessary. Overall, nasal organoids per se sustained serial propagation of HRV-C without any intervention. […] HRV-C virions released from the nasal organoids were concentrated and applied to transmission electron microscope (TEM) examination. Virion particles sized around 30 nm, and empty capsid particles were readily discernible (FIG. 3F). […]

[3] = tested on: HRV-C3; test: Antiviral inhibition in airway organoids infected with HRV-C3 (viral load by RT-qPCR); assay type: cell-based, human rhinovirus C; conditions: human airway organoids, 1 μM Rupintrivir or 3 μM Itraconazole, 1000 viral gene copy/cell, compared with HRV-A
Description: (§1) We then performed an antibody-blocking experiment in nasal organoids to assess the role of CDHR3 on HRV-C replication. We examined HRV-C replication in the nasal organoids in the presence of two a-CDHR3 antibodies or an isotypic IgG. […] Itraconazole^32, a repurposed antifungal drug with documented efficacy against rhinoviruses, was also tested.
(§2) A total of 9 HRV-C positive archived nasopharyngeal specimens from clinical patients were used for the study. Mature human airway and nasal organoids growing on 24-transwell inserts were washed twice with the basal medium (Advanced DMEM/F-12 (Gibco) supplemented with 1% HEPES, 1% GlutaMAX, and 1% Penicillin/Streptomycin), followed by virus inoculation with the indicated viral gene copy and subsequent incubation in the PD medium (PneumaCult-ALI medium (STEMCELL Technologies) supplemented with 10 μM DAPT and 10 μM Y27632), at 37° C. for 4 h. After incubation, the airway or nasal organoids were washed 3 times with the basal medium to remove residual inoculum. The apical and basolateral chambers were replenished with 300 μl and 500 μl PD medium, respectively. As for CYT387 treatment, airway and nasal organoids were pre-incubated in the PD medium with 1 μg/ml CYT387 (Invivogen, inh-cy87) or DMSO overnight. […]

[4] = tested on: HRV-A1; test: Antiviral inhibition in airway organoids infected with HRV-A1 (viral load by RT-qPCR); assay type: cell-based, human rhinovirus A; conditions: human airway organoids, 1 μM Rupintrivir or 3 μM Itraconazole, 1000 viral gene copy/cell, compared with HRV-C
Description: as §1, §2

Compound | serial HRV-C propagation (P1-P5) and viral load versus DMSO-treated organoids [1] | serial HRV-C propagation (P1-P5) and viral load versus DMSO-treated organoids ([1]; listed as CYT) | viral replication in P2 passage ([1]; 1 μg/ml CYT387, no viral growth in DMSO-treated organoids) | viral load in P1 media ([1]; 1 μg/ml CYT387 vs DMSO, first passage, 96 h.p.i.) | viral growth [2] | inhibitory effect on HRV-C (relative viral load versus DMSO-treated organoids) [3] | inhibitory effect on HRV-A (relative viral load versus DMSO-treated organoids) [4]
N#CCNC(=O)c1ccc(-c2ccnc(Nc3ccc(N4CCOCC4)cc3)n2)cc1 [CYT387, Momelotinib] | enabled serial propagation | consecutively passaged five times; also recorded: higher viral load | sustained robust viral replication | elevated viral load | significantly boosted viral growth | – | –
CCOC(=O)/C=C/[C@H](C[C@@H]1CCNC1=O)NC(=O)[C@@H](CC(=O)[C@@H](NC(=O)c1cc(C)on1)C(C)C)Cc1ccc(F)cc1 [Rupintrivir] | – | – | – | – | – | more prominent inhibitory effect | more prominent inhibitory effect of both drugs on HRV-C than HRV-A
